# From the SangsterLogP compilation
row,logP,Compound
1,3.62,N#Cc1cc(N2CCN(CCCCNC(=O)C=Cc3cccnc3)CC2)cc(C(F)(F)F)c1
2,4.18,CC(=O)NC1CCC(CCN2CCN(c3cccc(Cl)c3Cl)CC2)CC1 (stereo not given)
3,3.78,O=C(Nc1ccc2[nH]c(=O)oc2c1)C(=O)N1CCC(Cc2ccccc2)CC1
4,4.03,CS(=O)(=O)N[C@H]1CC[C@H](CCN2CCN(c3cccc(Cl)c3Cl)CC2)CC1
5,3.21,O=C(CNc1ccc2[nH]c(=O)[nH]c2c1)N1CCC(Cc2ccc(F)cc2)CC1
6,4.29,CCC(O)NC1CCC(CCN2CCN(c3cccc(Cl)c3Cl)CC2)CC1 (stereo not given)
7,4.22,O=C(NCCCCN1CCC(Oc2cccc(C(F)(F)F)c2)CC1)c1ccnc2ccccc12
8,3.76,O=C(NCCCCN1CCC(Nc2cccc(C(F)(F)F)c2)CC1)c1ccc(Br)cc1
9,4.55,N#Cc1cc(N2CCN(CCCCNC(=O)c3cnc4ccccc4c3)CC2)cc(C(F)(F)F)c1
10,4.28,O=C(NCCCCN1CCC(c2cccc(C(F)(F)F)c2)CC1)c1ccc(Br)cc1
